Data: patent publication US7371766B2, “Curcumin analogs with anti-tumor and anti-angiogenic properties” (Emory University, priority 1999, dated 2008)
Marks after values point to notes of the source that are not given here.

Tests used:
[1] = test system: Sixty human tumor cell lines; conditions: for GI50: read-out: Median Growth Inhibitory Concentration (GI50), Mean, Mean over the NCI cell lines
[2] = test system: RPMI-7951 human melanoma; assay: Neutral Red Assay, cell viability, RPMI-7951; conditions: RPMI-7951; for Cell Viability: DMSO = 100; for Neutral Red Uptake, %: 72 hours
[3] = test system: Vascular Endothelial Growth Factor (VEGF) production by human melanoma cell line RPMI-7951; assay: VEGF ELISA, RPMI-7951; conditions: RPMI-7951; for VEGF ELISA: DMSO control 3713
[4] = 5 μM, DMSO control 4197 (EF-25: 1045)
[5] = NCI Anti-Tumor Screen, several cell types

| Compound | GI50 ([1]; 48 hours) [µM] | Cell Viability ([2]; 20 μM) [%] | VEGF ([3]; 20 μM, DMSO = 100) [%] | Neutral Red Uptake, % ([2]; 5 μM) | Neutral Red Uptake, % ([2]; 20 μM) | Cell Viability ([2]; 5 μM) [%] | VEGF ([3]; 5 μM, DMSO = 100) [%] | VEGF ELISA ([3]; 5 μM) [pg/ml/well] | VEGF [3, 4] | VEGF ELISA ([3]; 20 μM) [pg/ml/well] | VEGF ([3]; 20 μM, DMSO control 4197) [pg/mL] | GI50 compared with CISPLATIN, in words [1, 5] | LC50 compared with CISPLATIN, in words [1, 5] | CC50 ([1]; read-out: Median Lethal Concentration (LC50), Mean, Mean over the cell line panel, 48 hours, SRB assay) [µM] |
| --- | --- | --- | --- | --- | --- | --- | --- | --- | --- | --- | --- | --- | --- | --- |
| 3,5-Bis(2-hydroxybenzylidene)-sulfone [EF11] | 34.7 | 93 | 51 |  |  |  |  |  |  |  |  |  |  |  |
| N.N.[Cl][Pt][Cl] [Cisplatin, reference compound] | 0.7 |  |  | 100 % of control | 100 % of control |  |  |  |  |  |  |  |  |  |
| C(=C\c1ccccc1)/S/C=C/c1ccccc1 [EF15] | 75.9 | 111 | 22 | 100 % of control | 100 % of control | 112 | 28 | 2361 | 1187 pg/mL | 894 | 938 |  |  |  |
| O=C1C(=Cc2ccccc2O)COCC1=Cc1ccccc1O [EF25, 3,5-Bis(2-hyrdoxybenzylidene)tetrahydro4-H-pyran4-one] | 1.1 |  |  |  |  | 12 | 21 |  | 216* pg/ml |  |  | lower GI50 than the chemotherapeutic agent CISPLATIN for several cell types | lower LC50 than the chemotherapeutic agent CISPLATIN for several cell types | 24.2 |
